Results reported in ChEMBL document CHEMBL3044561, “A rapid access to new coumarinyl chalcone and substituted chromeno[4,3-c]pyrazol-4(1H)-ones and their antibacterial and DPPH radical scavenging activities” (Med Chem Res, 2011).

Experiments:
[1] = tested on: Radical scavenging activity; assay: Antioxidant activity assessed as DPPH free radical scavenging activity after 30 min; type: functional
Staphylococcus aureus = assay: Antibacterial activity against Staphylococcus aureus NCTC 7447 at 1 mg/disk after 24 hr by paper disk diffusion method; type: functional

| Compound | IC50 [1] [nM] | diameter of the inhibition zone (DIZ) (Staphylococcus aureus) [mm] | inhibition zone (IZ) (Staphylococcus aureus) [mm] |
| --- | --- | --- | --- |
| CN(C)c1ccc(/C=C/C(=O)c2c(O)c3ccccc3oc2=O)cc1 | 2390 | 11 |  |
| O=C(/C=C/c1ccc([N+](=O)[O-])cc1)c1c(O)c2ccccc2oc1=O | 3210 | 16 |  |
| O=C(/C=C/c1ccc(Br)cc1)c1c(O)c2ccccc2oc1=O | 2250 | 9 |  |
| Cc1ccc(/C=C/C(=O)c2c(O)c3ccccc3oc2=O)cc1 | 2070 | 13 |  |
| Cn1ncc2c(=O)oc3ccccc3c21 |  | 17 |  |
| O=C(/C=C/c1cccc2ccccc12)c1c(O)c2ccccc2oc1=O | 2390 | 8 |  |
| O=C(/C=C/c1ccccc1)c1c(O)c2ccccc2oc1=O | 2150 | 10 |  |
| O=c1oc2ccccc2c2[nH]ncc12 |  | 14 |  |
| O=c1oc2ccccc2c2c1cnn2-c1ccccc1 |  | 19 |  |
| COc1ccc(/C=C/C(=O)c2c(O)c3ccccc3oc2=O)cc1 | 2810 | 14 |  |
| O=C(/C=C/c1ccc(F)cc1)c1c(O)c2ccccc2oc1=O | 2230 | 13 |  |
| COc1cc(/C=C/C(=O)c2c(O)c3ccccc3oc2=O)cc(OC)c1OC | 2290 | 11 |  |
| GENTAMICIN |  |  | 15 |
